Source: US11684601B2, “Treatment of cancer with combinations of agents” (The Board of Trustees of the Leland Stanford Junior …, priority 2019, dated 2023)

Key:
[1] = system: acetylation on H3K9, H3K27, and total H3; assay: Immunoblots of histone acetylation; type: cell-based; details: hypoxia, CHP134; for acetylation on H3K9, H3K27, and total H3: 5 mM acetate, 0.5 mM or 2 mM GTA
Procedure: (§1) Protein isolation and western blot. Cells were washed with PBS buffer and lysed with Harvest lysis buffer supplemented with Halt inhibitors for 5-10 min. Cell lysate was centrifuged at 5000 rpm for 5 min at 4° C. The supernatant containing cytosolic proteins was transferred to a new EP tube. The insoluble part contains nuclear proteins and was further lysed with nuclear lysis buffer for 5 min at 4° C. Then the lysate was sonicated in water-bath at 4° C. for 6 cycles (1 cycle=30 s sonication and 30 s cooldown). After sonication, the cell lysate was centrifuged at 15000 rpm for 10 min. Protein concentration was determined by BOA assay. 1 μg nuclear proteins or 1 μg cytosolic proteins were boiled in loading buffer with reducing reagents, then separated with SDS-PAGE. Protein were transferred onto a nitrocellulose membrane. After blocking in 5% non-fat milk for 1 hour, the first antibody was applied. After 3×TBST washes, HRP-conjugated secondary antibodies were applied. Signals were detected with an ECL kit. The complete antibody list is in table 1.

[2] = system: tri-methylation on H3K9, H3K27; assay: Immunoblots of histone methylation; type: cell-based; details: hypoxia; CHP134; 1 mM or 5 mM DMKG
Procedure: as §1

CHP134 cells [3] = assay: qPCR for SNCG and NGFR expression, CHP134; type: cell-based; details: hypoxia, 16 h
Procedure: (§2) RNA Isolation, Reverse Transcription, and Real-Time PCR. Total RNA was isolated from tissue culture plates according to the TRIzol Reagent (Invitrogen) protocol. 3 μg of total RNA was used in the reverse transcription reaction using the iScript cDNA synthesis kit (Bio-Rad). Quantitative PCR amplification was performed on the Prism 7900 Sequence Detection System (Applied Biosystems) using Taqman Gene Expression Assays (Applied Biosystems). Gene expression data were normalized to 18S rRNA.

CHP134 cells [4] = assay: Neurite outgrowth assay, CHP134; type: cell-based
Procedure: (§3) Neurite outgrowth assay. For the differentiation of neuroblastoma cells, 1×10^5 CHP134 or SMS-KNCR cells were plated in 6 well-plate. After overnight incubation, cells in hypoxia treatment group were pre-incubated in 0.5% 02 hypoxia chamber for 6 h. Then RA was added to reach a final concentration of 10 μM. After 48 h treatment, images were taken through an Olympus phase contrast microscope (×20 magnification). The lengths of the neurites were traced and quantified using the ImageJ plugin NeuronJ. Within each sample, total neurite length was measured and normalized by the number of cell bodies, mean value from biological triplicates was reported.

SMS-KCNR cells [5] = assay: Neurite outgrowth assay, SMS-KCNR; type: cell-based; details: 48 h
Procedure: as §3

SMS-KCNR cells [6] = assay: qPCR for SNCG and NGFR expression, SMS-KCNR; type: cell-based; details: hypoxia; 10 μM RA combined with 5 mM acetate or 2 mM GTA, 16 h
Procedure: as §2

[7] = Acetate measurement in plasma; type: in vivo, NSG mice; details: oral GTA, 5% in drinking water; p-value not significant
Procedure: For acetate measurement, 10 ul of serum was mixed with 10 ul of 50 uM ^13C2-acetate. Then, the mixture was precipitated by the addition of 80 ul acetonitrile and centrifuged for 10 min at 20,000×g. 80 ul supernatant was transferred to a new tube and derivertized according to the published protocol. 2 ul sample was subjected to mass spectrometry analysis using Agilent 1290 coupled to Q-TOF 6545. […] The mobile phase were 5 mM ammonium formate and 0.1% formic acid in water (A) and 90% acetonitrile (B). […] Agilent Q-TOF was operated in positive mode with ion spray voltage at 3500 V. The ratio of acetate to ^13C2-acetate was calculated using Agilent Profinder software B.08.00.
Mouse xenograft model. In viva studies were performed in accordance with protocols approved by the Institutional Animal Care and Use Committee at Stanford University and in compliance with all regulatory standards, 6 to 8-week-old male NSG mice were provided by Dr. Erinn Rankin. 2×10^6 CHP134 cells suspended in […] of RPMI-1640 with 50% Matrigel (BD Biosciences) were implanted subcutaneously into the dorsal flank of the mice. Tumor growth was recorded using digital caliper every other day, and tumor volumes were estimated using the formula: (L×W^2)/2, where L=length and W=width of tumor. The animals were randomized into 4 groups (Control, RA, GTA and GTA+RA) when the tumor volumes reached approximately 150 mm^3. […]

[8] = infants with Canavan disease; high dose; cited from earlier work
CHP134 cells [9] = assay: RNA-Seq pathway analysis of RA-upregulated genes; type: cell-based; details: 24 h RA vs DMSO
Procedure: RNA Sequencing. The total RNA from four treatment groups (Nor_Ctrl, Nor_RA, Hyp_Ctrl and Hyp_RA, 3 replicates) was extracted using Trizol reagent according to the manufacturer's instructions (n=3). The RNA-seq library was constructed and subjected to 150 bp paired-end sequencing on an Illumina sequencing platform (Novogene). RNA-seq analysis was performed using the kallisto and sleuth analytical pipeline. In brief, a transcript index was generated with reference to Ensembl version 57 for hg19. Paired-end mRNA-seq reads were pseudo-aligned using kallisto (v0.42.4) with respect to this transcript index using 100 bootstraps (-b 100) to estimate the variance of estimated transcript abundances. Transcript-level estimates were aggregated to transcripts per million (TPM) estimates for each gene, with gene names assigned from Ensembl using biomaRt. Differential gene expression analysis was performed using the sleuth R package across pairwise groups (normoxia DMSO vs. normoxia RA, normoxia DMSO vs. hypoxia DMSO, normoxia RA vs. hypoxia RA) using Wald tests, with significant hits called with a sleuth q-vaulue<0.05 and fold change estimate b>abS(In(2)).

CHP134 cells [10] = assay: Immunofluorescence staining of β-tubulin III / MAP2; type: cell-based; details: 10 μM RA, 72 h
Procedure: Immunofluorescence staining. […] cells were seeded into 8-champer slides with a density of 6000 cells/well and incubated with indicated treatment for 3 days. Cells were fixed with 4% PFA in 0.1% PBS-tween at room temperature for 30 min followed by permeabilization with 0.1% Triton X-100 in PBS at room temperature for 10 min. The cells were washed with PBS twice and blocked with 2.5% horse serum at room temperature for 1 hour. Then, cells were subjected to immunofluorescence staining with primary antibody overnight at 4° C. After twice washes with PBS, cells were incubated with Alexa Fluor 594-labeled anti-rabbit secondary antibody (Life Technologies) at room temperature for 1 hour followed by staining with DAP for 20 min. Images were acquired with Leica DMi8 microscope.

CHP134 mice xenografts = assay: Mouse xenograft model; type: in vivo; details: 10 mg/kg RA i.p. daily; after 23 days' treatment
Procedure: Mouse xenograft model. […] Tumor growth was recorded using digital caliper every other day, and tumor volumes were estimated using the formula: (L×W^2)/2, where L=length and W=width of tumor. The animals were randomized into 4 groups (Control, RA, GTA and GTA+RA) when the tumor volumes reached approximately 150 mm^3. 10 mg/kg RA or DMSO vehicle was injected intraperitoneally daily for 3 weeks. Mice received GTA in the drinking water (5% by weight).

[11] = Pharmacokinetics of RA in NSG mice; type: in vivo
Procedure: For 13-cis-retinoic acid measurement, serum samples were collected at 0.5 h, 1 h, 2 h and 6 h after RA injection (10 mg/kg, i.p.). 10 ul serum was mixed with 90 ul extraction buffer (ethyl acetate:n-hexane:IPA, 30:60:10). After 20 min on a shaker at 120 rpm, the mixture was centrifuged at 5000 g for 5 min. The organic layer was collected into a new tube and dried using speed vacuum. The residue was reconstituted with 100 ul of 5 mM ammonium formate in water/acetonitrile (1:1). 5 ul sample was subjected to mass spectrometry analysis using Agilent 1290 coupled to QQQ 6470. […] The mobile phase was 5 mM ammonium formate and 0.1% formic acid in water (A) and 90% acetonitrile (B). […] Agilent QQQ 6470 was operated in positive mode with ion spray voltage at 3000 V. The MRM transitions were 301.2→159.1/205.1. Data was processed by Agilent MassHunter Quantitative Analysis for QQQ B.07.01. (Agilent Technologies)

[12] = system: chromatin accessibility at RAR/RXR binding sites; details: hypoxia; 5 mM acetate
Procedure: ATAC-seq. ATAC-seq was performed and analyzed as previously described (n=2). […] -O 5 -m 30 -q 15. Bowtie 2 version 2.3.1 was used to align trimmed reads to hg19 with flags -q -phred33-X 2000 -fr -p 8 -x hg19, followed by samtools sort command. Duplicates were marked with Picard-tools version 1.83, then samtools view with flags -b -f 1 -F12 -L were used to filter mitochondria mapping reads with a bed file containing all chromosomes except chrM. Filtered mapping files are transferred into coverage bigwig file using deeptools with default bin size (10 bps). SPP/phantom was run to obtain the fragment length with maximum Strand cross-correlation. MACS2 callpeak function was then performed with flags -q 0.05 -nomodel-extsize=½ fragment length obtained from SPP. Associate p-values for each peak is generated and extracted from MACS2 output. Ranked gene lists were created from the RNA-Seq and ATAC-Seq datasets following differential testing. Gene set enrichment analysis were performed using the GSEA with the C2 (CP:REACTOME) MSigDB v6.2.

CHP134 cells [13] = details: hypoxia vs normoxia; U-13C-acetate 3 h
Procedure: Metabolic tracing study. For glucose isotope tracing, CHP134 cells were pretreated under normoxia or hypoxia for 16 h (n=3). Then the medium was changed to DMEM:F12 with 3.15 g/L ^13C6-glucose with 10% dialyzed FBS for 3 h. For acetate isotope tracing, the procedure was same as glucose tracing except that the complete DMEM:F12 medium was supplemented with 2 mM ^13C2-acetate.
Liquid chromatography-mass spectrometry analysis. For the metabolic tracing study, cells were washed with cold PBS, lysed in 80% Ultra LC-MS acetonitrile on ice for 15 min, centrifuged for 10 min at 20,000×g, and supernatant was subjected to mass spectrometry analysis. Liquid chromatography was performed using an Agilent 1290 Infinity LC system (Agilent, Santa Clara, US) coupled to a Q-TOF 6545 mass spectrometer (Agilent, Santa Clara, US). A hydrophilic interaction chromatography method (HILIC) with a BEH amide column (100 ×2.1 mm i.d., 1.7 μm; Waters) was used for compound separation at 35° C. with a flow rate of 0.3 ml/min. The mobile phase A consisted of 25 mM ammonium acetate and 25 mM ammonium hydroxide in water and mobile phase B was acetonitrile. The gradient elution was 0-1 min, 85 % B; 1-12 min, 85% B→65% B; 12-12.2 min, 65% B→40% B; 12.2-15 min, 40% B. After the gradient, the column was re-equilibrated at 85% B for 5 min. The overall runtime was 20 min, and the injection volume was 5 μL. […]

[14] = 10 μM RA combined with 5 mM acetate or 2 mM GTA

For COC(=O)CCC(=O)C(=O)OC [DMKG, Dimethyl-α-ketoglutarate], which histone acetylation ([1]; 1 mM or 5 mM DMKG) is on record?
The histone acetylation was “did not significantly increase histone acetylation”.

What about the histone hypermethylation [2] of the same molecule?
The histone hypermethylation was “reduced histone hypermethylation”.

And the “expression of NGFR and SNCG” value (CHP134 cells [3]; 10 μM RA combined with 5 mM DMKG)?
The value was “did not restore the expression of NGFR and SNCG”.

With CC(=O)OCC(COC(C)=O)OC(C)=O [GTA, glycerol triacetate] as the molecule, how does the “differentiative activity as a single agent” value (CHP134 cells [4]; GTA alone) read?
The value was “little to no differentiative activity”.

And the “RA-induced neuron-like morphological changes” value (CHP134 cells [4]; hypoxia, 10 μM RA plus 2 mM GTA, 48 h)?
The value was “restored the RA-induced neuron-like morphological changes”.

And the “RA-induced neuron-like morphological changes” value (SMS-KCNR cells [5]; hypoxia, 10 μM RA plus 2 mM GTA)?
Its value is “restored the RA-induced neuron-like morphological changes”.

What about the “acetylation on H3K9, H3K27, and total H3” value [1] of the same molecule?
Its value is “restored acetylation on H3K9, H3K27, and total H3”.

And the “expression of NGFR and SNCG” value (CHP134 cells [3]; [14])?
Its value is “significantly restored the expression of NGFR and SNCG”.

And the “expression of NGFR and SNCG” value (SMS-KCNR cells [6])?
Its value is “significantly restored the expression of NGFR and SNCG”.

What about the “plasma acetate concentration vs control group” value [7] of the same molecule?
Its value is “slight increase of plasma acetate concentration”.

What about the toxicity [8] of the same molecule?
The toxicity was “no detectable toxicity”.

With CC1=C(/C=C/C(C)=C/C=C/C(C)=C\C(=O)O)C(C)(C)CCC1 [RA, 13-cis-retinoic acid] as the molecule, how does the “neurite outgrowth and differentiation morphology” value (CHP134 cells [4]; 10 μM RA, 48 h, hypoxia (0.5% O2) vs normoxia) read?
Its value is “partially diminished nerite outgrowth and the differentiation morphology”.

What about the “cell morphological changes / neurite outgrowth” value (CHP134 cells [4]; 10 μM RA, 48 h, normoxia (21% O2)) of the same molecule?
Its value is “induced obvious cell morphological changes to a mature neuronal-like phenotype characterized by neurite outgrowth”.

What about the “neurite outgrowth and differentiation morphology” value (SMS-KCNR cells [5]; 10 μM RA, hypoxia (0.5% O2) vs normoxia) of the same molecule?
The value was “partially diminished nerite outgrowth and the differentiation morphology”.

And the “cell morphological changes / neurite outgrowth” value (SMS-KCNR cells [5]; 10 μM RA, normoxia (21% O2))?
The value was “induced obvious cell morphological changes to a mature neuronal-like phenotype characterized by neurite outgrowth”.

What about the “pathway analysis of RA-upregulated genes” value (CHP134 cells [9]) of the same molecule?
The value was “enrichment of NGF signaling, transmission across of chemical synapses and neuronal system genes”.

And the “β-tubulin III/MAP2 positive neurites” value (CHP134 cells [10]; hypoxia vs normoxia)?
Its value is “partially suppressed”.

And the “β-tubulin III/MAP2 positive neurites” value (CHP134 cells [10]; normoxia)?
The value was “increased β-tubulin III/MAP2 positive neurites”.

What about the “anti-tumor effect (tumor volume, tumor weight)” value (CHP134 mice xenografts) of the same molecule?
The value was “didn't show anti-tumor effect”.

And the “half-life of RA” value ([11]; 10 mg/kg i.p.)?
The value was “relative short half-life”.

And the “time blood RA concentration maintained above 10 uM” value ([11]; 10 mg/kg i.p.)?
Its value is “around 2 h”.

What about the “blood RA concentration” value ([11]; 10 mg/kg i.p., at 6 h after injection) of the same molecule?
The value was “reduced to the basal level”.

And the “blood RA concentration” value ([11]; 10 mg/kg i.p., maintained for around 2 h)?
The value was “above 10 uM”.

And the “time of peak blood RA concentration” value ([11]; 10 mg/kg, after i.p. injection)?
Its value is 30 min.

What does the source list for CC(=O)[O-].[Na+] [acetate, Sodium acetate]?
acetylation on H3K9, H3K27, and total H3 [1]: restored acetylation on H3K9, H3K27, and total H3; expression of NGFR and SNCG (CHP134 cells [3]; [14]): significantly restored the expression of NGFR and SNCG; expression of NGFR and SNCG (SMS-KCNR cells [6]): significantly restored the expression of NGFR and SNCG; chromatin accessibility [12]: partially restored chromatin accessibility; chromatin accessibility of genes with RAR/RXR binding sites [12]: increased chromatin accessibility; cellular acetyl-CoA production (13C labeled acetyl-CoA[M+2]) (CHP134 cells [13]): promote cellular acetyl-CoA production
